Assay results taken from US8476229B2, “Blood sugar-modulating polypeptides” (China Medical University, priority 2008, dated 2013).

test system: normal mice (BALB/c); assay: Glucose challenge after oral administration of polypeptide, normal mice; blood sugar value by blood sugar meter; assay type: in vivo; settings: BALB/c fasted 18 hrs; 50 mg/kg-body weight oral; 4 g/kg glucose i.p. after 15 minutes; blood sugar after 180 minutes; relative to water control
Source text: The following materials were adopted in the examples: • (A) Experimental subjects: two strains of mice, BALB/c (the metabolism of blood sugar is normal) and ob/ob (spontaneous diabetes type 2), were used to conduct experiments, and they were provided by the National Laboratory Animal Center, Taiwan. • (B) Polypeptides: polypeptides with amino acid sequences shown in Table 1 were produced by the solid phase synthesis method.
Five normal mice (BALB/c) in each of the nine groups fasted for 18 hrs, and then, respectively, a solution (20 μL) of 50 mg/kg-body weight of the polypeptide of SEQ ID NO: 1, a solution (20 μL) of 50 mg/kg-body weight of the polypeptide of SEQ ID NO: 2, a solution (20 μL) of 50 mg/kg-body weight of the polypeptide of SEQ ID NO: 3, a solution (20 μL) of 50 mg/kg-body weight of the polypeptide of SEQ ID NO: 4, a solution (20 μL) of 50 mg/kg-body weight of the polypeptide of SEQ ID NO: 5, a solution (20 μL) of 50 mg/kg-body weight of the polypeptide of SEQ ID NO: 6, a solution (20 μL) of 50 mg/kg-body weight of the polypeptide of SEQ ID NO: 7, a solution (20 μL) of 50 mg/kg-body weight of the polypeptide of SEQ ID NO: 8, or a solution (20 μL) of 50 mg/kg-body weight of the polypeptide of SEQ ID NO:9, was given to each mouse of each group of the experimental group by oral administration, while in the control group (five mice), each mouse was given water (20 μL). After 15 minutes, a solution of 4 g/kg-body weight of glucose was injected into the peritoneal cavity of each mouse to rapidly raise the blood sugar value of each mouse. After 180 minutes, the blood of each mouse was extracted from its tails, and the blood sugar value was determined by a blood sugar meter (Accu-Check Advantage, Roche, Germany). The blood sugar values of the mice of the experimental group were compared with those of the control group and were analyzed to obtain the relative inhibition rate of each of the polypeptides toward the blood sugar values, as shown in Table 4.
Five normal mice (BALB/c) in each of two groups fasted for 18 hrs, and then, respectively, a solution (20 μL) of 50 mg/kg-body weight of the polypeptide of SEQ ID NO: 10, or a solution (20 μL) of 50 mg/kg-body weight of the polypeptide of SEQ ID NO:11, was given to each mouse of each group of the experimental group by oral administration, while in the control group (five mice), each mouse was given water (20 μL). After 15 minutes, a solution of 4 g/kg-body weight of glucose was injected into the peritoneal cavity of each mouse to rapidly raise the blood sugar value of each mouse. After 180 minutes, the blood of each mouse was extracted from its tails, and the blood sugar value was determined by a blood sugar meter (Accu-Check Advantage, Roche, Germany). The blood sugar values of the mice of the experimental group were compared with those of the control group and were analyzed to obtain a relative inhibition rate of the polypeptides of SEQ ID NO:10 and SEQ ID NO:11 toward the blood sugar values, as shown in Table 5.

| Sequence | Inhibition Rate (%) toward the blood sugar values [%] |
| --- | --- |
| RVRVWVDSYGIVSMVPKIG (VITIS VINIFERA) [SEQ ID NO: 4] | 67.8 ± 9.1 |
| RVRVWVTERGIVAR (MOMORDICA …) [SEQ ID NO: 10] | 34.5 ± 8.8 |
| DENRVRIWVDTVAKTPTIG (ORYZA SATIVA) [SEQ ID NO: 9] | 60.2 ± 14.1 |
| RVWVWINKDEIVYQVPTIG (MEDICAGO TRUNCATULA) [SEQ ID NO: 3] | 52.5 ± 14.9 |
| RVRVWVDENGIVISVPTIG (VITIS VINIFERA) [SEQ ID NO: 5] | 30.2 ± 31.3 |
| RVRVWVDENGIVTRVPVIG (SAMBUCUS NIGRA) [SEQ ID NO: 7] | 56.3 ± 2.6 |
| RVRVWVDEIRIVVRNPTAG (ARABIDOPSIS THALIANA) [SEQ ID NO: 8] | 25.5 ± 8.6 |
| RVWVWVNSKGIVIRTPIIT (ZINNIA ELEGANS) [SEQ ID NO: 2] | 24.5 ± 2.3 |
| RVRVWVNKKGKVIRVPRIG (CITRUS PARADISI) [SEQ ID NO: 6] | 26.2 ± 3.1 |
| RVRIWVNKRGLVVSPPRIG (CUCURBITA MAXIMA) [SEQ ID NO: 1] | 15.7 ± 6.9 |

same assay, conditions: BALB/c fasted 18 hrs; 50 mg/kg-body weight oral; 4 g/kg glucose i.p. after 15 minutes; blood sugar after 180 minutes; relative to water control; 50 mg/kg

| Sequence | Inhibition Rate (%) toward the blood sugar values [%] |
| --- | --- |
| RVRVWVTERGIVARPPTIG (MOMORDICA …) [SEQ ID NO: 11] | 51.9 ± 19.4 |

same assay, conditions: BALB/c fasted 18 hrs; 50 mg/kg-body weight oral; 4 g/kg glucose i.p. after 15 minutes; blood sugar after 180 minutes; relative to water control; listed as SEQ ID NO:11, 50 mg/kg

| Sequence | Inhibition Rate (%) toward the blood sugar values |
| --- | --- |
| RVRVWVTERGIVARPPTIG (MOMORDICA …) [SEQ ID NO: 11] | about 50% |

same assay, conditions: BALB/c; 50 mg/kg-body weight oral; comment on Tables 4 and 5

| Sequence | effect of reducing the blood sugar values (in words) |
| --- | --- |
| RVRVWVDSYGIVSMVPKIG (VITIS VINIFERA) [SEQ ID NO: 4] | better effect of reducing the blood sugar values |
| RVRVWVTERGIVAR (MOMORDICA …) [SEQ ID NO: 10] | can reduce the blood sugar values of the normal mice efficiently |
| DENRVRIWVDTVAKTPTIG (ORYZA SATIVA) [SEQ ID NO: 9] | better effect of reducing the blood sugar values |
| RVRVWVTERGIVARPPTIG (MOMORDICA …) [SEQ ID NO: 11] | can reduce the blood sugar values of the normal mice efficiently |
| RVRVWVDENGIVTRVPVIG (SAMBUCUS NIGRA) [SEQ ID NO: 7] | better effect of reducing the blood sugar values |
